Test results: article PMC11374953, “Heteroaryl derivatives of suvorexant as OX1R selective PET ligand candidates: Cu-mediated ^18F-fluorination of boroxines, in vitro and initial in vivo evaluation” (EJNMMI Research, 2024)
Values joined by “and” are separate entries in the source; they are usually repeats but may differ in a detail not shown here. Equal entries are not always repeated. “Also recorded” adds a separate entry of the source.

Experiments:
[1] = biological target: T1, human OX1R (Homo sapiens, UniProt O43613); assay: Radioligand displacement binding, human OX1R (HEK293T membranes); details: for OX1R selectivity Ki(hOX2R)/Ki(hOX1R): Ki for OX2R divided by Ki for OX1R; for Ki: mean ± SEM, at least three experiments in triplicate, HEK293T membranes, radioligand [^3H]SB974042, read-out: Ki values (nM ± SEM) hOX1R
T1 construct: host or cells: HEK293T
T1 sequence (O43613 1-425): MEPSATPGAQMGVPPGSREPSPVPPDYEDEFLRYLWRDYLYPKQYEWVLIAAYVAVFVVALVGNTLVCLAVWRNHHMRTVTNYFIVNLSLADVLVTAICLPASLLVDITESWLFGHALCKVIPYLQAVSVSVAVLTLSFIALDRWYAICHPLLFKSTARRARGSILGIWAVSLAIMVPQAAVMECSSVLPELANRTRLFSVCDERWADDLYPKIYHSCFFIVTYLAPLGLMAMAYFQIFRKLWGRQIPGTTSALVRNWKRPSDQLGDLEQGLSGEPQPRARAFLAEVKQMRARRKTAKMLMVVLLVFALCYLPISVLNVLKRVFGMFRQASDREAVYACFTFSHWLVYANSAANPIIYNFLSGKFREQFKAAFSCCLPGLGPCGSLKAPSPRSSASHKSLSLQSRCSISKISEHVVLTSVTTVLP
Procedure: (§1) In comparison with the lead JH112, receptor binding affinities of the test compounds 1a–f have been determined by radioligand displacement studies, as described previously, applying membranes of HEK293T cells transiently expressing the human OX1R or OX2R (Table 1).
Binding affinities to the human orexin receptor subtypes OX1R and OX2R were determined as reported. Membranes were prepared from HEK293T cells transiently transfected with the cDNA for the receptor (OX1R: human HCRTR1 from cDNA Resource Center, Bloomsburg University, Bloomsberg, PA; OX2R: human HCRTR2 from Genscript, Piscataway, NJ). […] Competition binding experiments were conducted in binding buffer (50 mM Tris, 5 mM MgCl2, 0.1 mM EDTA, 5 µg/mL bacitracin and 5 µg/mL soybean trypsin inhibitor at pH 7.4) at final protein concentrations of 4 µg/well (OX1R) and 3 µg/well ([…]) or the OX2R radioligand [^3H]EMPA (specific activity: 84 Ci/mmol) both at a final concentration of 0.7 nM (both purchased from Novandi, Södertälje, Sweden) and varying concentrations of the competing test compounds. Radioactivity was separated by filtration on GF/B glass fiber mats and counted with a scintillation counter (Microbeta from PerkinElmer, Rodgau, Germany). […] The protein concentration was determined applying the method of Lowry. Competition curves were analyzed by nonlinear regression using the algorithms implemented in PRISM 10.2 (GraphPad Software, San Diego, CA) to get IC50 values, which were subsequently transformed into the Ki values employing the equation of Cheng and Prusoff.

[2] = biological target: T2, human OX2R (Homo sapiens, UniProt O43614); assay: Radioligand displacement binding, human OX2R (HEK293T membranes); details: mean ± SEM, at least three experiments in triplicate; HEK293T homogenates, radioligand [^3H]EMPA; read-out: Ki values (nM ± SEM) hOX2R
T2 construct: host or cells: HEK293T
T2 sequence (O43614 1-444): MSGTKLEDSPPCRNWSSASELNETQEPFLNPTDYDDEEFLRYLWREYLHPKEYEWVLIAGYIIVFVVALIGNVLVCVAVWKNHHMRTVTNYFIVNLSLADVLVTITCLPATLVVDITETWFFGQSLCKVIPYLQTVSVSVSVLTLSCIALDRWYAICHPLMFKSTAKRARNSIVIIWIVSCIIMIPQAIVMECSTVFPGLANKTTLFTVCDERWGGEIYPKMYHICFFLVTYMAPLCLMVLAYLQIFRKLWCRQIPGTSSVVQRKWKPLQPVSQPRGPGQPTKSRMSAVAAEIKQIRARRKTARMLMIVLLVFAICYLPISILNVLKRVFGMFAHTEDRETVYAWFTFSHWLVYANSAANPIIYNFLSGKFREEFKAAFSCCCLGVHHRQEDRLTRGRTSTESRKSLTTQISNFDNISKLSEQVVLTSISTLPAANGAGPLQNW
Procedure: as §1
Binding affinities to the human orexin receptor subtypes OX1R and OX2R were determined as reported. Membranes were prepared from HEK293T cells transiently transfected with the cDNA for the receptor (OX1R: human HCRTR1 from cDNA Resource Center, Bloomsburg University, Bloomsberg, PA; OX2R: human HCRTR2 from Genscript, Piscataway, NJ). […] Competition binding experiments were conducted in binding buffer (50 mM Tris, 5 mM MgCl2, 0.1 mM EDTA, 5 µg/mL bacitracin and 5 µg/mL soybean trypsin inhibitor at pH 7.4) at final protein concentrations of 4 µg/well (OX1R) and 3 µg/well (OX2R) when incubating the OX1R specific radioligand [^3H]SB674042 (specific activity: 43 Ci/mmol) or the OX2R radioligand [^3H]EMPA (specific activity: 84 Ci/mmol) both at a final concentration of 0.7 nM (both purchased from Novandi, Södertälje, Sweden) and varying concentrations of the competing test compounds. Radioactivity was separated by filtration on GF/B glass fiber mats and counted with a scintillation counter (Microbeta from PerkinElmer, Rodgau, Germany). Non-specific binding was determined with 10 µM of SB674042 or EMPA. The protein concentration was determined applying the method of Lowry. Competition curves were analyzed by nonlinear regression using the algorithms implemented in PRISM 10.2 (GraphPad Software, San Diego, CA) to get IC50 values, which were subsequently transformed into the Ki values employing the equation of Cheng and Prusoff.

[3] = biological target: P-gp (Homo sapiens, UniProt P08183); assay: Basolateral-to-apical transport in Caco-2 monolayers with and without the P-gp inhibitor zosuquidar; details: for effect of P-gp inhibitor zosuquidar (ZSQ) on basolateral-to-apical transport / passive permeability (transcellular passive diffusion): Caco-2 monolayers, 4 h; for effect of P-gp inhibitor zosuquidar (ZSQ) on basolateral-to-apical transport: 5 µM compound, 1 µM ZSQ, n = 8; for passive permeability (transcellular passive diffusion): 5 µM, compared with digoxin; for P-gp substrate assessment: Caco-2 monolayer model with zosuquidar
P-gp, sequence (P08183 whole entry, the tested form may be a part): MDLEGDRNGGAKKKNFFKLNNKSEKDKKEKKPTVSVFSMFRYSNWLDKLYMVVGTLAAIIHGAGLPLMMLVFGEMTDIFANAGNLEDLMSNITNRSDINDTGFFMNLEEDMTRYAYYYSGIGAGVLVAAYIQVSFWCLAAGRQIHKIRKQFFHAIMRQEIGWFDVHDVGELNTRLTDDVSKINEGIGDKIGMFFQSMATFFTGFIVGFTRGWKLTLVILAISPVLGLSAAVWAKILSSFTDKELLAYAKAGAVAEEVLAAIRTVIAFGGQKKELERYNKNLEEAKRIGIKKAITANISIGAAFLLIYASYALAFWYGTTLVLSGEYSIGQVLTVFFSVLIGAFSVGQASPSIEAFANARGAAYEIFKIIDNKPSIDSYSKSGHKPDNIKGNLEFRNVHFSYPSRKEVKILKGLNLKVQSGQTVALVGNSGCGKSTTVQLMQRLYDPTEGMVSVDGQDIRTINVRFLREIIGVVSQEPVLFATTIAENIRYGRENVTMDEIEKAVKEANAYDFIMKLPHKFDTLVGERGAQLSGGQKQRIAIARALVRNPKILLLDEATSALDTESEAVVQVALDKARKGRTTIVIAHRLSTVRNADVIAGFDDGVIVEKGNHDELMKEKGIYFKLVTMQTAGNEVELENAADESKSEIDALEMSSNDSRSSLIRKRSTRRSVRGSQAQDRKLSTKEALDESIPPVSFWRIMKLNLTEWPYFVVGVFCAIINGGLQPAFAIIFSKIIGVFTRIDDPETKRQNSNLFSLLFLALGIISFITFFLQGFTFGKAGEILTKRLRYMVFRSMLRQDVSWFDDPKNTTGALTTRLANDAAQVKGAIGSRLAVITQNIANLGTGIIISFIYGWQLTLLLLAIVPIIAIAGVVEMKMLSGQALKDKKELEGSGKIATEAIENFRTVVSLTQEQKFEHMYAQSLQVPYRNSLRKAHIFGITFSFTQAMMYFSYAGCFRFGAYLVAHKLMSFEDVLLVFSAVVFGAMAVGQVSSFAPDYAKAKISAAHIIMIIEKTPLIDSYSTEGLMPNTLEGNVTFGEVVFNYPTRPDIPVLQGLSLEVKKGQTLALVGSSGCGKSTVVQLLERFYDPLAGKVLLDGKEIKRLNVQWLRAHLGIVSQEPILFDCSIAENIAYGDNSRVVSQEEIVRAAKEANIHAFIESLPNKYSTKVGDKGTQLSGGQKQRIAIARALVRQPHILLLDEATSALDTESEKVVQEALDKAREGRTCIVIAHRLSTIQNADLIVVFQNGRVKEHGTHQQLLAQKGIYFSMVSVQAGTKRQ
Procedure: Amounts being present after 4 h in the apical compartment are shown in % of the amount administered to the basal side.
In order to characterize compounds as substrates of P-gp, monolayers of Caco-2 cells were used in line with previous studies [53]. In brief, transport from the basolateral to apical compartment was determined after 4 h in the absence or presence of the P-gp inhibitor zosuquidar (Biomol GmbH, Hamburg, Germany). […] Zosuquidar was administered in a concentration of 1 µM to the basal and apical compartments. Results are expressed in % of the amount administered to the basolateral compartment at the beginning of the experiment. The P-gp substrate digoxin (obtained in tritium-labeled form from ARC, St. Louis, USA and in unlabeled form from Merck KGaA, Darmstadt, Germany) was used as positive control. Monolayer integrity was checked routinely using tritium-labeled inulin (obtained from ARC, St. Louis, USA). […] LC–MS analyses were performed using an ultra-high-performance liquid chromatography (UPLC) (Ultimate 3000, Thermo Fisher Scientific) coupled to a high-resolution mass spectrometer (QExactive Orbitrap Focus, Thermo Fisher Scientific). The analytical column was an Acquity UPLC BEH C18, 1.7 µm, 2.1 × 100 mm column (Waters GmbH) and 80% methanol with 0.1% formic acid was used as mobile phase during an isocratic elution for 5 min at a flow rate of 0.35 mL/min. For sample preparation, 200 µL cell culture supernatant were mixed with 600 µL methanol including 50 ng/mL clopidogrel-d3 as an internal standard. Samples were centrifuged, the solvent of 600 µL supernatant was evaporated to dryness and 100 µL mobile phase was used for reconstitution. The injection volume was 5 µL. All experiments were performed with eight biological replicates. Unpaired t-test was used for analyzing differences with p-values < 0.05 considered significant.

[4] = Partition coefficient logD7.4 (n-octanol/PBS); type: physicochemical; details: n-octanol/PBS pH 7.4, mean ± SD
Procedure: Phosphate-buffered saline (PBS, 480 µL, pH 7.4) and n-octanol (500 µL) were placed in an Eppendorf tube. The radioligand (30–50 kBq, [^18F]1c or [^18F]1f) in PBS (20 µL) was added to the tube, vortexed for 1 min and centrifuged (20,000g, 1 min). Three samples (100 µL) from each layer were collected and measured by a γ-counter (Wallac Wizard 1470, PerkinElmer, USA). After the average cpm values from the triplicate measurements of each layer were calculated, the logD7.4 was determined as the logarithm of the ratio of n-octanol (mean cpm) to PBS (mean cpm). The mean logD7.4 value ± standard deviation was determined by at least three independent experiments each performed in triplicates.

[5] = Radioligand stability in human plasma and human serum; type: in vitro ADME; details: 37 °C, up to 120 min, radio-HPLC
Procedure: (§2) The radioligand (1–2 MBq, [^18F]1c or [^18F]1f) in PBS (20 µL) was incubated with human serum, human plasma or rat plasma (400 µL) at 37 °C. Samples (50 µL) were taken at 5, 10, 15, 30, 60 and 120 min, mixed with aqueous TFA (10%, 50 µL) and centrifuged (20,000g, 2 min). The supernatant (20 µL) was analyzed by radio-HPLC.

[6] = Plasma protein binding (MicroSpin G-50 columns); type: in vitro ADME; details: human plasma, 37 °C, read-out: plasma protein binding (PPB) (converted)
Procedure: The radiotracer (100–200 kBq, [^18F]1c or [^18F]1f) in PBS (2 µL) was incubated with human plasma (100 µL) at 37 °C for 10 min. After preconditioning of the microcolumns according to the instructions of the manufacturer (illustra MicroSpin G-50 columns from GE Healthcare), a sample (40 µL) of was applied to the resin. The microspin tubes were centrifuged (2000g, 2 min) and both, eluate and resin were measured by a γ-counter (Wallac Wizard 1470, PerkinElmer, USA). The PPB was calculated as percentage of bound ligand (cpm of resin) from the total amount of radioactivity (sum of cpm of resin and eluate). Samples from incubation of the radiotracer in saline instead of plasma served as negative control. The mean PPB value was determined from at least two independent experiments each performed in triplicate.

[7] = Dynamic small animal PET imaging of the rat brain; type: in vivo
Procedure: Small animal PET experiments in rats were performed to allow for an initial comparison in single animals that were injected with [^18F]1c or [^18F[1f alone, after preinjection of suvorexant (1 mg/kg), and after pretreatment with cyclosporine A (25 mg/kg) (Fig. 3). […] Therefore, to elucidate the P-gp-mediated transport of the compounds, specific experiments were performed.
Fig. 3 Time-activity curves and horizontal PET slices of the rat brain after injection of [^18F]1c (A, C) and [^18F]1f (B, D). Single animals were injected with the tracer alone (“control”, blue) compared to animals preinjected with suvorexant (1 mg/kg, 15 min prior to tracer injection, each n = 1; “blocking”, red) or cyclosporine A (25 mg/kg, 30 min prior to tracer injection, each n = 1; green)
Ten- to 13-week-old female CD Sprague–Dawley rats (250–300 g, Charles River) were housed with free access to standard rat chow (Purina) and water at all times. Dynamic small animal PET scans were performed on an Inveon™ microPET scanner (Siemens Healthineers AG, Erlangen, Germany). All rats were continuously anesthetized using isoflurane (2–3% in oxygen, 0.8 L/min) and placed on a heating pad (37 °C) during the PET scan. Rats were injected intravenously in the tail vein with the radioligand in saline (5–15 MBq in 200–300 µL, [^18F]1c or [^18F]1f). Pretreatment with suvorexant (1 mg/kg, 15 min prior to tracer injection) or cyclosporine A (25 mg/kg, […] to tracer injection) was done intravenously. Dynamic PET scans were acquired from 0 to 60 min p.i. and consisted of 23 frames with increasing duration (12 × 10 s, 3 × 1 min, 5 × 5 min and 3 × 10 min). Subsequently, an attenuation scan with a rotating Co-57 point source was performed. The obtained dynamic emission images were subjected to an attenuation and decay correction. After the iterative maximum a posteriori (MAP) estimation for the image reconstruction, regions of interest (ROIs) were drawn for the whole brain. Computational processing of the PET scans was done with the software PMOD (PMOD Technologies LLC). The data obtained were finally converted into values expressed as percent of injected dose per gram (%ID/g).

[8] = Radioligand stability in rat plasma; type: in vitro ADME; details: 37 °C, up to 120 min, radio-HPLC
Procedure: as §2

Row | Structure (SMILES) | OX1R selectivity Ki(hOX2R)/Ki(hOX1R) [1] | Ki [1] [nM] | Ki [2] | effect of P-gp inhibitor zosuquidar (ZSQ) on basolateral-to-apical transport [3] | passive permeability (transcellular passive diffusion) [3] | further results
1 | Cc1ccc(-n2nccn2)c(C(=O)N2CCCN(c3nc4cc(F)ccc4o3)CC2)c1 [1a] | 1.0 | 2.5 ± 0.62 | 2.5 ± 0.36 nM |  |  | 
2 | Cc1ccc(-n2nccn2)c(C(=O)N2CCCN(c3nc4cc(F)ccc4s3)CC2)c1 [1b] | 1.3 | 1.9 ± 0.42 | 2.4 ± 0.49 nM | did not significantly reduce | greater than that of digoxin | 
3 | Cc1ccc(-n2nccn2)c(C(=O)N2CCCN(c3nc4ccc(F)cc4s3)CC2)c1 [1c] | 1.2 | 0.99 ± 0.25 | 1.2 ± 0.2 nM | only moderately inhibited; also recorded: very modest, yet significant, effect | greater than that of digoxin | P-gp substrate assessment [3]: not efficient P-gp substrates
4 | Cc1ccc(-n2nccn2)c(C(=O)N2CCCN(c3cnc4cc(F)ccc4n3)CC2)c1 [1d] | 0.7 | 1.2 ± 0.4 | 0.8 nM and 0.83 nM | did not significantly reduce | greater than that of digoxin | 
5 | CC[C@H](C)[C@H]1CN(c2nc3cc(F)ccc3o2)CCCN1C(=O)c1cc(C)ccc1-n1nccn1 [1e] | 77 | 1.2 ± 0.28 | 92 ± 14 nM |  |  | decrease of OX1R affinity compared to JH112 (factor) ([1]; fluorine for chlorine replacement): 1.6
6 | CC[C@H](C)[C@H]1CN(c2nc3ccc(F)cc3s2)CCCN1C(=O)c1cc(C)ccc1-n1nccn1 [1f] | 77 | 0.69 ± 0.26 | 53 ± 7.8 nM | no effect; also recorded: did not significantly reduce | similarly high as with digoxin | P-gp substrate assessment [3]: not efficient P-gp substrates
7 | Cc1ccc(-n2nccn2)c(C(=O)N2CCCN(c3nc4ccc([18F])cc4s3)CC2)c1 [[^18F]1c, [4-(6-[^18F]fluorobenzo[d]thiazol-2-yl)-1,4-diazepan-1-yl][5-methyl-2-(2H-1,2,3-triazol-2-yl)phenyl]methanone] |  |  |  |  |  | logD [4]: 2.28; stability in human plasma [5]: stable over 120 min; stability in human serum [5]: stable over 120 min; fraction unbound at 10 min [6]: 0.34; brain uptake after pretreatment with cyclosporine A ([7]; cyclosporine A 25 mg/kg i.v. prior to tracer, n = 1): 0.25 %ID/g; brain uptake after preinjection of suvorexant ([7]; suvorexant 1 mg/kg i.v. 15 min prior to tracer, n = 1): 0.25 %ID/g; time of maximum brain uptake p.i. ([7]; tracer alone i.v.): about 40 s; maximum brain uptake ([7]; tracer alone i.v., whole brain, n = 1): 0.17 %ID/g; stability in rat plasma [8]: stable over 120 min
